Results reported in patent US11524012B1, “Quinolone analogs and their salts, compositions, and method for their use” (Senhwa Biosciences, Inc., priority 2018, dated 2022).

Test: Stability study of lyophilized Compound I with mannitol (Method A / Method B samples)
Type: physicochemical
Details: Method B sample
Experimental: […] Each 30 mL Type I, clear glass sample vial with 20 mm Freeze Dry Stoppers (Flurotech™ coated) contained 150 mg of Compound I.
At each time point, a vial was removed from the stored condition and reconstituted with 10 mL of D5W and analyzed by HPLC method as discussed in Example 5 at 1 month, 2 months, 3 months, and/or 6 months. In Tables 18-18e, RRT matches the Compounds as shown below.
Sample Preparation—Method A: 10% Mannitol solution was prepared by weighing 200 g±1.0 g of mannitol into glass beaker, adding approximately 1500 mL of WFI (water for injection) to the beaker and stirring until mannitol was dissolved. The mannitol solution was transferred to a 2 L volumetric flask and made to volume with WFI, then poured back to the original beaker to sir and mix further. 1M HCl solution was prepared by adding 16.4 mL of HCl (37%) to a 200 mL volumetric flask containing approximately 100 mL of WFI, adding WFI to make 200 mL in volume, and inverting to mix the prepared solution.
To a tared 2 L Schott bottle containing a magnetic stirrer and wrapped in aluminum foil, 1020 g±1.0 g of the 10% mannitol solution was added. Then, 58.4 g±0.05 g of the 1M HCl solution was added to the 2 L Schott bottle and stirred for approximately 10 minutes. The solution prepared in the 2 L Schott bottle was purged with nitrogen which was continued throughout the manufacturing process. 30.22 g of Compound I (free base) was weighed then added to the 2 L Schott bottle containing 10% mannitol solution and 1 M HCl solution with continual magnetic stirring. The container used to weigh Compound I was rinsed with 3×10 mL of WFI and added to the Schott bottle. After Compound I dissolved (approximately 40 minutes), additional 650 g of WFI was added to the Schott bottle and the solution was stirred for approximately 10 minutes. The pH of the Compound I solution (in Schott bottle) was measured then adjusted to pH 4.5±0.1 using 1 M HCl solution. After each addition of 1 M HCl solution, the solution was stirred for several minutes prior to verifying the pH. Once the pH was adjusted, nitrogen purging was stopped. The pH adjusted Compound I solution was further diluted with WFI to a target weight of 2040 g±1.0 g and stirred.
The final solution (pH adjusted and diluted) was filtered (chain including PVD Fmembrane filter 0.45 μm and 0.22 μm; peristaltic filtration pump by Watson Marlow) in the Bigneat and the bottle containing the filtered solution was sealed. The filtered solution was pumped (Watson Marlow Flexicon PF6-B pump; 100 RPM) into 30 mL Schott Clear Glass vials (10.0 mL filtered solution each). The glass vials were partially stoppered with 20 mm Freeze Dry Stopper Flurotec (Daikyo Seiko) one vial at a time with sterilized utensils inside a fume hood (Envair B101+1.5R) and placed on freeze dryer trays. The freeze dryer trays were transferred into freeze dry chamber and vial probe was positioned (Lyostar II; FTS Kinetics). Lyophilization was performed using the lyophilization cycle listed below. After lyophilization cycle finished, the vials were back filled with N2 and the stopper was placed in situ, wiped down with isopropanol in the fume hood once removed from the freeze dryer, reconciled, then crimped. Seven vials out of 186 sample vials placed under the lyophilization cycle had smashed in the freeze dryer.
Sample Preparation—Method B (dissolved oxygen content ≤1 ppm): 2 L WFI was poured into a Schott bottled and degassed for 30 minutes with N2 until dissolved oxygen content was ≤1 ppm (dissolved oxygen meter and probe; Mettler Toledo). 10% Mannitol solution was prepared by adding […] of mannitol and 1000 mL of degassed WFI to a tared 2 L Schott bottle containing a magnetic stirrer and wrapped in aluminum foil. To the Schott bottle containing mannitol, 15 mL of 2M HCl was added and stirred for approximately 10 minutes. The resulting solution was sparged with N2 while stirring until dissolved oxygen content was ≤1 ppm (approx. 30 min). […]

[1] = 5° C, time not printed (2nd block, col 1)
[2] = 5° C, time not printed (2nd block, col 2)
[3] = 5° C, time not printed (2nd block, col 3)
[4] = 5° C, time not printed (2nd block, col 4)

SMILES: Cc1cnc(CNC(=O)c2c(=O)c3ccc(N4CCCN(C)CC4)nc3n3c2sc2ccccc23)cn1 [Compound I, 2-(4-Methyl-[1,4]diazepan-1-yl)-5-oxo-5H-7-thia-1,11b-diaza-benzo[c]fluorene-6-carboxylic acid (5-methyl-pyrazin-2-ylmethyl)-amide]
- pH (USP<791>) (5° C, Initial): 4.6
- Appearance [1]: Off-white powder
- Appearance (Reconstituted Solution) [1]: Clear, colorless
- Compound I by HPLC assay [1]: 101.7%
- Related Substances RRT 1.05 [1]: RRT 1.05: 0.14%
- Related Substances RRT 1.07 [1]: RRT 1.07: 0.05%
- Related Substances Total [1]: Total:0.2%
- Water Content USP<921 Method 1c> [1]: 1.37%
- pH (USP<791>) [1]: 4.6
- Appearance [2]: Off-white powder
- Appearance (Reconstituted Solution) [2]: Clear, colorless
- Compound I by HPLC assay [2]: 101.3%
- Related Substances RRT 1.05 [2]: RRT 1.05: 0.13%
- Related Substances Total [2]: Total: 0.1%
- Water Content USP<921 Method 1c> [2]: 1.29%
- pH (USP<791>) [2]: 4.5
- Appearance [3]: Off-white powder
- Appearance (Reconstituted Solution) [3]: Clear, colorless
- Compound I by HPLC assay [3]: 100.3%
- Related Substances RRT 1.05 [3]: RRT 1.05: 0.13%
- Related Substances Total [3]: Total: 0.1%
- Water Content USP<921 Method 1c> [3]: 1.05%
- pH (USP<791>) [3]: 4.5
- Appearance [4]: Off-white powder
- Appearance (Reconstituted Solution) [4]: Clear, colorless
- Compound I by HPLC assay [4]: 99.1%
- Related Substances RRT 1.05 [4]: RRT 1.05: 0.11%
- Related Substances Total [4]: Total: 0.1%
- Water Content USP<921 Method 1c> [4]: 1.25%
- pH (USP<791>) [4]: 4.5
- Appearance (25° C./60% RH, 1 month): White
- Appearance (Reconstituted Solution) (25° C./60% RH, 1 month): Clear, colorless
- Compound I by HPLC assay (25° C./60% RH, 1 month): 99.8%
- Reconstitution Time (25° C./60% RH, 1 month): 55 s
- Related Substances RRT 1.06 (25° C./60% RH, 1 month): 0.17%
- Related Substances RRT 1.08 (25° C./60% RH, 1 month): 0.06%
- Related Substances Total (25° C./60% RH, 1 month): Total: 0.2%
- Water Content USP<921 Method 1c> (25° C./60% RH, 1 month): 1.47%
- pH (USP<791>) (25° C./60% RH, 1 month): 4.4
- Appearance (25° C./60% RH, 2 months): Off-white
- Appearance (Reconstituted Solution) (25° C./60% RH, 2 months): Clear, colorless
- Compound I by HPLC assay (25° C./60% RH, 2 months): 101.0%
- Related Substances RRT 0.17 (25° C./60% RH, 2 months): 0.08%
- Related Substances RRT 1.04 (25° C./60% RH, 2 months): 0.08%
- Related Substances RRT 1.05 (25° C./60% RH, 2 months): 0.17%
- Related Substances Total (25° C./60% RH, 2 months): Total: 0.3%
- Water Content USP<921 Method 1c> (25° C./60% RH, 2 months): 1.30%
- pH (USP<791>) (25° C./60% RH, 2 months): 4.6
- Appearance (25° C./60% RH, 3 months): Off-white
- Appearance (Reconstituted Solution) (25° C./60% RH, 3 months): Clear, colorless
- Compound I by HPLC assay (25° C./60% RH, 3 months): 100.8%
- Related Substances RRT 0.17 (25° C./60% RH, 3 months): 0.09%
- Related Substances RRT 1.04 (25° C./60% RH, 3 months): 0.08%
- Related Substances RRT 1.05 (25° C./60% RH, 3 months): 0.19%
- Related Substances Total (25° C./60% RH, 3 months): Total: 0.4%
- Water Content USP<921 Method 1c> (25° C./60% RH, 3 months): 1.30%
- pH (USP<791>) (25° C./60% RH, 3 months): 4.6
- Appearance (25° C./60% RH, 6 months): Off-white
- Appearance (Reconstituted Solution) (25° C./60% RH, 6 months): Clear, colorless
- Compound I by HPLC assay (25° C./60% RH, 6 months): 100.3%
- Related Substances RRT 0.88 (25° C./60% RH, 6 months): 0.06%
- Related Substances RRT 1.05 (25° C./60% RH, 6 months): 0.16%
- Related Substances RRT 1.07 (25° C./60% RH, 6 months): 0.10%
- Related Substances Total (25° C./60% RH, 6 months): Total: 0.3%
- Water Content USP<921 Method 1c> (25° C./60% RH, 6 months): 1.30%
- pH (USP<791>) (25° C./60% RH, 6 months): 4.5
- Appearance (25° C./60% RH, 12 months): Off-white
- Appearance (Reconstituted Solution) (25° C./60% RH, 12 months): Clear, colorless
- Compound I by HPLC assay (25° C./60% RH, 12 months): 100.7%
- Related Substances RRT 1.05 (25° C./60% RH, 12 months): 0.18%
- Related Substances RRT 1.07 (25° C./60% RH, 12 months): 0.09%
- Related Substances Total (25° C./60% RH, 12 months): Total: 0.3%
- Water Content USP<921 Method 1c> (25° C./60% RH, 12 months): 1.55%
- pH (USP<791>) (25° C./60% RH, 12 months): 4.5
- Appearance (25° C./60% RH, 24 months): Off-white
- Appearance (Reconstituted Solution) (25° C./60% RH, 24 months): Clear, colorless
- Compound I by HPLC assay (25° C./60% RH, 24 months): 97.6%
